Where two headings read alike, the source gives them in different places. Where a SMILES comes first, the peptide text is derived from it. [ ]: non-standard residue; d: D form. The star is where a group is joined. Sta = CC(C)C[C@H](N)[C@@H](O)CC(=O)O; Isovaleryl = CC(C)CC(=O)*; Nle = CCCC[C@H](N)C(=O)O
Experiments:
native calpain I = target: T1, native calpain I (Homo sapiens, UniProt P07384); assay: Inhibitor profile: inhibition of Succ-Leu-Tyr-MNA hydrolysis by native calpain I; format: biochemical; details: for difference in IC50 values with respect to the known calpain inhibitors / inhibition of activity: native enzyme
T1 construct: Native and recombinant enzymatically active calpain I were compared; from tissue; host or cells: human erythrocytes (red blood cells)
T1 sequence (P07384 2-714): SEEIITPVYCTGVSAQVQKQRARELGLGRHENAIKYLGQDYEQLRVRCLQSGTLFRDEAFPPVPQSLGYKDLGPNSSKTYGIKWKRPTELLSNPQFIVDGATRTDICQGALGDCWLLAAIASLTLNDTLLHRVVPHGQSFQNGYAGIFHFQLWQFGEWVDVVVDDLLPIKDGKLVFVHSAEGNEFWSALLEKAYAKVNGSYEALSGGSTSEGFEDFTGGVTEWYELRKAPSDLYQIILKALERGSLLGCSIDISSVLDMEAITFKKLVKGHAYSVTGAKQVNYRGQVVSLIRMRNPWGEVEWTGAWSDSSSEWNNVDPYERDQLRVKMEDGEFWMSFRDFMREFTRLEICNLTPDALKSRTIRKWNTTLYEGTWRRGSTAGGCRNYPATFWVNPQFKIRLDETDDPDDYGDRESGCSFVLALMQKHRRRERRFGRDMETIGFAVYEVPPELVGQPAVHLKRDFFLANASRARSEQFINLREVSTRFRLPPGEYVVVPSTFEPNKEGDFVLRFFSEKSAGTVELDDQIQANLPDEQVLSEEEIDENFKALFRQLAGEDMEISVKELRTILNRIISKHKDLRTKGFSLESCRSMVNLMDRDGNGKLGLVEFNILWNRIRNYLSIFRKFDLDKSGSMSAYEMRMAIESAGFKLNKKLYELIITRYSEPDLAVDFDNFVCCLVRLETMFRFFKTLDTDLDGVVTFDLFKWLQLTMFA
T1 sequence (P04632 1-268 partner): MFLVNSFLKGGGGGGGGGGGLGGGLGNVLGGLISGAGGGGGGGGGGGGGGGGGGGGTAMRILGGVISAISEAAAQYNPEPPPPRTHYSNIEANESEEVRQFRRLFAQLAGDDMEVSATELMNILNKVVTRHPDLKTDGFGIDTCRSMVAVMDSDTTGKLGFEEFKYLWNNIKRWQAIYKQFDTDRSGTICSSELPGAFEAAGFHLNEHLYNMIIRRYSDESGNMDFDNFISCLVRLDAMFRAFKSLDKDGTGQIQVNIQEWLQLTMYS
Description: (§1) To evaluate inhibitor sensitivities, stocks (40 times concentrated) of each inhibitor to be tested were prepared in 100% anhydrous DMSO and 5 μl of each inhibitor preparation were aliquoted into each of three wells of a 96 well plate. Dilutions of each enzyme preparation were made into assay buffer (i.e., 50 mM Tris, 50 mM NaCl, 1 mM EDTA, 1 mM EGTA, and 5 mM β-mercaptoethanol, pH 7.5 including 0.2 mM Succ-Leu-Tyr-MNA) and 175 μl of each dilution aliquoted into the same wells containing the independent inhibitor stocks as well as to positive control wells containing 5 μl DMSO, but no inhibitor. To start the reaction, 20 μl of 50 mM CaCl2 in assay buffer was added to all wells of the plate, excepting three, which were used as background signal baseline controls. Substrate hydrolysis was monitored every 5 minutes for a total of 30 minutes. […] The rate of hydrolysis was determined as the change in fluorescence units per the 10 minute time period between 5 and 15 minutes. At each inhibitor concentration tested, the percent inhibition was determined as the percent decrease in the rate of substrate hydrolysis in the presence of inhibitor versus the rate in its absence. […] Prototypic inhibitors of serine (PMSF) and aspartic proteases (pepstatin A) were also included in this determination.

[1] = target: T2, recombinant human calpain I (Homo sapiens, UniProt P07384); assay: Inhibitor profile: inhibition of Succ-Leu-Tyr-MNA hydrolysis by recombinant calpain I; format: biochemical; details: for difference in IC50 values with respect to the known calpain inhibitors / inhibition of activity: recombinant enzyme
T2 construct: the 2153 bp fragment containing the entire human 80 kDa calpain I cDNA; made in house; host or cells: Spodoptera frugiperda Sf21 cells, recombinant baculovirus (AcNPV-hCANPI-2-5, or coinfection with AcNPV-hCANP30-5 and AcNPV-hCANPI80-5)
T2 sequence (P07384 2-714): T1 sequence (P07384 2-714)
T2 sequence (P04632 1-268 partner): T1 sequence (P04632 1-268 partner)
Description: as §1

native human calpain I [2] = assay: Calcium-dependent protease activity (Succ-Leu-Tyr-AMC), native calpain I; format: biochemical; details: 12.5 μM calpain inhibitor I; native human calpain I; FIG. 5a
Description: (§2) Sf21 cells were again seeded in 24 well plates at 1.5×10^5 cells/cm^2 and infected with either wild-type virus, coinfected with both AcNPV-hCANP30-5 and AcNPV-hCANPI80-5 (MOI of 5 for each virus), or infected with AcNPV-hCANPI-2-5 (MOI=5.7). The intracellular proteins were harvested at 40 hours after infection with 100 μl/well of the following lysis buffer: 50 mM Tris-HCl, pH 7.5, 50 mM NaCl, 1 mM EDTA, 1 mM EGTA, 5 mM β-mercaptoethanol, 0.1% Triton-100, followed by a 10 minutes centrifugation at 14,000×g at 4° C. to pellet the nuclei and some membranes. The in vitro enzyme activity of 20 μl of each extract (12.5-20 μg of total protein) was measured using the synthetic peptide substrate succinyl-leucine-tyrosine-aminomethyl coumarin (Succ-Leu-Tyr-AMC) at a 1 mM concentration with and without the addition of 5 mM CaCl2 following the procedure of Sasaki et al., J. Biol. Chem., 259:12489-12494 (1984), incorporated herein by reference. The activity obtained was compared with the enzyme activity of 2 μg of partially-purified native human calpain I produced according to the method of Siman et al., supra.
(§3) The activity in the presence of calcium was also measured with the addition of 12.5 μM calpain inhibitor I following the procedure disclosed in Sasaki et al., supra. The results are depicted in FIGS. 5a-d. In FIGS. 5a-d, open circles represent activity without calcium present. […]

[3] = target: T2, recombinant human calpain I; assay: Calcium-dependent protease activity (Succ-Leu-Tyr-AMC), recombinant calpain in Sf21 cell extracts; format: biochemical; details: 12.5 μM calpain inhibitor I; recombinant, coinfected or AcNPV-hCANPI-2-5; FIGS. 5c, 5d
Description: as §2, §3

[4] = tested on: recombinant 80 kDa subunit of calpain I; assay: Enzymatic activity of independently expressed 80 kDa subunit (Succ-Leu-Tyr-AMC); format: biochemical, human; details: 12.5 μM calpain inhibitor I; 33 μg unfractionated extract; FIG. 8
Description: as §2, with “The activity obtained was compared with the enzyme activity of 2 μg of partially-purified native human calpain I produced according to the method of Siman et al., supra.” left out
To determine the relative activity of the recombinantly produced 80 kDasubunit, the enzymatic activity of the subunit was examined in unfractionated extracts from Sf21 cells infected with AcNPV-hCANPI80-5. […] The same amount of enzyme activity for both the recombinant 80 kDa subunit and the recombinant calpain was then run on SDS-PAGE and the amount of each was qualitatively determined by immunoblot analysis as described in Example 4 above. […]

neurons = details: rats, clamping both carotid arteries and lowering arterial blood pressure; cited from earlier work
cells = details: cited from earlier work
rat Na,K-ATPase = details: enzyme from insect cells; cited from earlier work
[5] = imidazole-HCl/EGTA buffer, pH 7.3; used for approximating [Ca2+]; read-out: Kd of EGTA for calcium; cited from earlier work
native human calpain I [6] = assay: Calcium activation of native calpain (Succ-Leu-Tyr-MNA hydrolysis); format: biochemical; details: pH 7.3, 1 mM Succ-Leu-Tyr-MNA, approximation based on Kd of EGTA, read-out: concentration of calcium required to give 1/2 Vmax
Description: (§4) To determine the calcium concentration required for enzyme activity, tests were performed essentially as described by Kitahara et al., J. Biochem., 95:1759-1766 (1984). First, enzyme preparations were dialyzed overnight against 110 mM imidazole-HCl/1 mM EGTA buffer at pH 7.3 containing 5 mM β-mercaptoethanol. Ten-fold concentrated Ca^2+ /EGTA buffers were prepared by adding varying amounts of CaCl2 to the imidazole/EGTA buffer. Twenty μl of each buffer was put into three wells of a 96 well plate. Dilutions of dialyzed enzyme were made into the imidazole/EGTA buffer containing 1 mM Succ-Leu-Tyr-MNA and 180 μl of each preparation were added to the wells containing the various Ca/EGTA buffers. Substrate hydrolysis was measured every 5 minutes for 30 minutes. The 1/2 Vmax was determined as the rate of substrate hydrolysis which was 50% of the maximal rate achieved in the presence of the varying amounts of calcium. […] The [Ca^2+ ] activation profiles for both the native and recombinant enzymes are virtually identical. In FIG. 9, open squares with interior open circles represent recombinant human calpain I (rhCANPI). Shaded squares with interior open circles represent native human calpain I (nhCANPI).

[7] = target: T2, recombinant human calpain I; assay: Calcium activation of recombinant calpain (Succ-Leu-Tyr-MNA hydrolysis); format: biochemical; details: pH 7.3, 1 mM Succ-Leu-Tyr-MNA, approximation based on Kd of EGTA, read-out: concentration of calcium required to give 1/2 Vmax
Description: as §4

[8] = tested on: EAA-induced protein breakdown; details: in vivo; cited from earlier work
[9] = tested on: vulnerable hippocampal neurons; details: in vivo; cited from earlier work
calpain = details: in vivo; cited from earlier work
[10] = Native calpain, 0.2 mM Succ-Leu-Tyr-MNA, rate between 5 and 15 minutes, read-out: IC50
[11] = Recombinant calpain, 0.2 mM Succ-Leu-Tyr-MNA, rate between 5 and 15 minutes, read-out: IC50

## O=S(=O)(F)Cc1ccccc1 [PMSF, phenylmethylsulfonyl fluoride]
Native calpain I
  IC50: > 1000 µM
  difference in IC50 values with respect to the known calpain inhibitors: 5-6 fold order of magnitude
  inhibition of activity: insignificant inhibition
[1]
  IC50: > 1000 µM
  difference in IC50 values with respect to the known calpain inhibitors: 5-6 fold order of magnitude
  inhibition of activity: insignificant inhibition

## CCCC[C@@H](C=O)NC(=O)[C@H](CC(C)C)NC(=O)[C@H](CC(C)C)NC(C)=O [calpain inhibitor I] (Ac-Leu-Leu-[Nle]-aldehyde)
Native human calpain I [2]
  inhibition of calcium-dependent substrate hydrolysis: inhibited
[3]
  inhibition of calcium-dependent substrate hydrolysis: also inhibited
[4]
  inhibition of activity: completely inhibited
neurons
  protection of neurons against ischemic and hypoxic damage: protected neurons against ischemic and hypoxic damage

## CCCC[C@@H](C=O)NC(=O)[C@H](CC(C)C)NC(=O)OCc1ccccc1 [Z--Leu--Nle--H, Z-Leu-Nle-H]
Native calpain I; [10]
  IC50: 0.014 µM
[1]; [11]
  IC50: 0.01 µM

## CC(C)C[C@H](NC(=O)OCc1ccccc1)C(=O)N[C@@H](CC(C)C)C(=O)N[C@@H](Cc1ccccc1)C(=O)C[S+](C)C [Z--Leu--Leu--Phe--CH2 S(+)Me2 Br(-), Z-Leu-Leu-Phe-CH2 S(+)Me2 Br(-)]
Native calpain I; [10]
  IC50: 0.014 µM
[1]; [11]
  IC50: 0.008 µM

## calpastatin
cells
  uptake by cells: not readily taken up by cells

## Na,K-ATPase: functional rat Na,K-ATPase expressed using the baculovirus expression system
Rat Na,K-ATPase
  activity relative to enzyme from dog kidney outer medulla: 20-25%

## O=C(O)CN(CCOCCOCCN(CC(=O)O)CC(=O)O)CC(=O)O [EGTA]
[5]
  Kd: 5.5 µM

## CC(C)CC(=O)N[C@H](C(=O)N[C@H](C(=O)N[C@@H](CC(C)C)[C@@H](O)CC(=O)N[C@@H](C)C(=O)N[C@@H](CC(C)C)[C@@H](O)CC(=O)O)C(C)C)C(C)C [Pepstatin A] (Isovaleryl-VV[Sta]A[Sta]-OH)
Native calpain I; [10]
  IC50: > 10 µM
Native calpain I
  difference in IC50 values with respect to the known calpain inhibitors: 5-6 fold order of magnitude
  inhibition of activity: insignificant inhibition
[1]; [11]
  IC50: > 10 µM
[1]
  difference in IC50 values with respect to the known calpain inhibitors: 5-6 fold order of magnitude
  inhibition of activity: insignificant inhibition

## CCNC(=O)C(=O)[C@H](Cc1ccccc1)NC(=O)[C@H](CC(C)C)NC(=O)OCc1ccccc1 [Z--Leu--Phe--CONHEt, Z-Leu-Phe-CONHEt]
Native calpain I
  IC50: 0.056 µM
[1]
  IC50: 0.034 µM

## calcium
Native human calpain I [6]
  EC50: 15 µM
[7]
  EC50: 14 µM

## CC(=O)N[C@@H](CC(C)C)C(=O)N[C@@H](CC(C)C)C(=O)N[C@H](C=O)CCCNC(=N)N [leupeptin]
[8]
  lowering EAA-induced protein breakdown: unsuccessful
cells
  uptake by cells: failed to enter the cells
neurons
  protection of neurons against ischemic and hypoxic damage: protected neurons against ischemic and hypoxic damage
[9]
  protection against degeneration of hippocampal neurons after ischemia: protected against the degeneration of vulnerable hippocampal neurons after ischemia
calpain
  block of trauma-evoked calpain response: block a trauma-evoked calpain response in vivo
